Results from patent US20160045505A1, “COMPOUNDS AND COMPOSITIONS FOR THE TREATMENT OF PARASITIC DISEASES” (NOVARTIS AG, priority 2013, published 2016).
pEC50: −log10 of the molar value. Like-named read-outs stand apart in the source and are kept apart here.

Tests used:
[1] = test system: Leishmania donovani axenic amastigote parasites; experiment: Leishmania donovani axenic amastigote proliferation assay (Cell TiterGlo luminescence, 2 day incubation); assay type: cell-based; details: Leishmania donovani, read-out: L. donovani amastigotes EC50
[2] = test system: L. donovani HU3 strain in mouse peritoneal macrophages; experiment: Assay for proliferation of Leishmania parasites in infected mouse peritoneal macrophages (SybrGreen staining, high-content imaging, 5 days); assay type: cell-based, Leishmania donovani; details: Leishmania donovani, Peritoneal macrophage, L. donovani in mouse peritoneal macrophages, read-out: L. donovani Macrophage EC50
[3] = test system: Trypanosoma cruzi amastigotes (Tulahuen strain expressing Lac-Z) cultured in 3T3 fibroblast cells; experiment: microbe, parasite or virus in culture; assay type: cell-based; details: Trypanosoma cruzi, TULAHUEN
[4] = axenic amastigotes, inhibition of proliferation
[5] = Fibroblast, T. cruzi amastigotes in 3T3 fibroblast cells, inhibition of proliferation, read-out: T cruzi EC50
[6] = Fibroblast, T. cruzi amastigotes in 3T3 fibroblast cells, read-out: T cruzi EC50

SMILES | pEC50 [1, 4] | pEC50 ([2]; inhibition of proliferation) | pEC50 [3, 5] | pEC50 ([1]; L. donovani axenic amastigotes) | pEC50 [2] | pEC50 [3, 6] | pEC50 ([3]; NIH3T3, 144 h, T. cruzi amastigotes in 3T3 cells, 6 day incubation, read-out: EC50)
CC(C)OC(=O)Nc1cnc2nc(-c3cc(NC(=O)c4ncc[nH]4)ccc3F)cn2c1 [Compound 92] | < 4.60 | < 4.54 | < 4.70 |  |  |  | 
CCn1nccc1-c1cnc2nc(-c3cc(NC(=O)c4oc(C)nc4C)ccc3F)cn2c1 [Compound 387] |  |  |  | 7.07 | 6.54 | 6.83 | 
Cc1nc(C)c(C(=O)Nc2ccc(F)c(-c3cn4cc(-c5ccccn5)cnc4n3)c2)o1 [Compound 394] |  |  |  | 7.10 | 6.97 | < 4.70 | 
Cc1nc(C)c(C(=O)Nc2ccc(F)c(-c3cn4cc(NC(C)C)cnc4n3)c2)o1 [Compound 481] |  |  |  | 6.68 | 6.37 | 6.82 | 
CC(C)OC(=O)Nc1cnc2nc(-c3cc(NC(=O)C4CCCCO4)ccc3Cl)cn2c1 (stereo not shown) [Compound 57] | 6.06 | 5.53 | 6.39 |  |  |  | 
CC(C)OC(=O)Nc1cnc2nc(-c3cc(NC(=O)N4CCN(C)CC4)ccc3Cl)cn2c1 [Compound 218] | < 4.60 | 4.50 | < 4.70 |  |  |  | 
Cc1nc(C)c(C(=O)Nc2ccc(F)c(-c3cn4cc(C5=CCOCC5)cnc4n3)c2)o1 [Compound 334] | 7.28 | 7.07 | 7.19 |  |  |  | 
CC(C)OC(=O)Nc1cnc2nc(-c3cc(NC(=O)N4CC(F)C4)ccc3Cl)cn2c1 [Compound 283] | 6.61 | 6.14 | 5.88 |  |  |  | 
Cc1nc(C(=O)Nc2ccc(Cl)c(-c3cn4cc(NC(=O)OC(C)C)cnc4n3)c2)c[nH]1 [Compound 59] | < 4.60 | < 4.30 | < 4.70 |  |  |  | 
Cc1nc(C)c(C(=O)Nc2ccc(F)c(-c3cn4cc(C5=CCN(C)CC5)cnc4n3)c2)o1 [Compound 361] | 5.10 | 6.00 | 5.98 |  |  |  | 
CNC(=O)Nc1ccc(F)c(-c2cn3cc(NC(=O)OC(C)C)cnc3n2)c1 [Compound 220] | 6.22 | 5.30 | 5.86 |  |  |  | 
Cc1nc(C)c(C(=O)N(C)c2ccc(F)c(-c3cn4cc(NC(C)C)cnc4n3)c2)o1 [Compound 557] |  |  |  | < 4.60 | < 4.30 | < 4.70 | 
CC(C)OC(=O)Nc1cnc2nc(-c3cc(NC(=O)N4CCCC4(C)C)ccc3Cl)cn2c1 [Compound 282] | < 4.60 | 5.00 | 5.13 |  |  |  | 
O=C(Nc1ccc(F)c(-c2cn3cc(C4=CCOCC4)cnc3n2)c1)N1CCCC1 [Compound 353] | 7.29 | 6.95 | 7.28 |  |  |  | 
COc1cccnc1-c1cnc2nc(-c3cc(NC(=O)c4oc(C)nc4C)ccc3F)cn2c1 [Compound 459] |  |  |  | 6.89 | 6.46 | 6.92 | 
COCCNc1cnc2nc(-c3cc(NC(=O)N4CCCC4)ccc3Cl)cn2c1 [Compound 496] |  |  |  | 5.69 | 5.05 | 5.67 | 
C=C(c1ccccc1)c1cnc2nc(-c3cc(NC(=O)c4oc(C)nc4C)ccc3F)cn2c1 [Compound 346] | 6.45 | 6.31 | 6.80 |  |  |  | 
C[Si](C)(C)CCOCn1cnc(-c2cnc3nc(-c4cc(NC(=O)N5CCCC5)ccc4Cl)cn3c2)c1 [Compound 344] | 7.14 | 6.80 | 7.29 |  |  |  | 
Cc1cc(C(=O)Nc2ccc(F)c(-c3cn4cc(NC(=O)OC(C)C)cnc4n3)c2)n[nH]1 [Compound 77] | 5.03 | < 4.30 | < 4.70 |  |  |  | 
O=C(Nc1ccc(F)c(-c2cn3cc(OCC4CC4)cnc3n2)c1)N1CCCC1 [Compound 562, N-(3-(6-(cyclopropylmethoxy)imidazo[1,2-a]pyrimidin-2-yl)-4-fluorophenyl)pyrrolidine-1-carboxamide] |  |  |  | 6.80 | 6.61 | 7.34 | 
O=C(Nc1ccc(F)c(-c2cn3cc(-n4cn[nH]c4=O)cnc3n2)c1)N1CCCC1 [Compound 534, N-(4-fluoro-3-(6-(5-oxo-1H-1,2,4-triazol-4(5H)-yl)imidazo[1,2-a]pyrimidin-2-yl)phenyl)pyrrolidine-1-carboxamide] |  |  |  | < 4.63 | < 4.30 | < 4.70 | 
CC(C)OC(=O)Nc1cnc2nc(-c3cc(NC(=O)C4CCCO4)ccc3Cl)cn2c1 (stereo not shown) [Compound 55] | 5.14 | 4.57 | 5.38 |  |  |  | 

SMILES | pEC50 [1, 4] | pEC50 ([2]; inhibition of proliferation) | pEC50 [3, 5] | pEC50 ([1]; L. donovani axenic amastigotes) | pEC50 [2] | pEC50 [3, 6] | pEC50 ([3]; NIH3T3, 144 h, T. cruzi amastigotes in 3T3 cells, 6 day incubation, read-out: EC50)
CC(C)NNC(=O)Nc1cnc2nc(-c3cc(NC(=O)N4CCCC4)ccc3F)cn2c1 [Compound 522] |  |  |  | 4.71 | < 4.30 | < 4.70 | 
O=C(Nc1ccc(F)c(-c2cn3cc(-c4ccccc4Cl)cnc3n2)c1)N1CCCC1 [Compound 357] | 7.06 | 6.71 | 7.82 |  |  |  | 
Cc1cnoc1C(=O)Nc1ccc(F)c(-c2cn3cc(NC(=O)OC(C)C)cnc3n2)c1 [Compound 111] | < 4.60 | < 4.30 | < 4.70 |  |  |  | 
CC(=O)OC(C)C(=O)Nc1ccc(Cl)c(-c2cn3cc(NC(=O)OC(C)C)cnc3n2)c1 (stereo not shown) [Compound 56] | 4.72 | < 4.30 | 4.94 |  |  |  | 
O=C(Nc1ccc(F)c(-c2cn3cc(C4CCOCC4)cnc3n2)c1)N1CCCC1 [Compound 419] |  |  |  | 7.11 | 6.74 | 6.94 | 
CC(C)OC(=O)Nc1cnc2nc(-c3cc(NC(=O)N4CC(=O)C4)ccc3Cl)cn2c1 [Compound 279] | 5.61 | 5.02 | < 4.76 |  |  |  | 
CC(C)OC(=O)Nc1cnc2nc(-c3cc(NC(=O)N4CCC(C)(C(=O)O)C4)ccc3Cl)cn2c1 (stereo not shown) [Compound 280] | < 4.60 | < 4.38 | < 4.70 |  |  |  | 
O=C(Nc1ccc(F)c(-c2cn3cc(-c4ccccc4)cnc3n2)c1)N1CCC1 [Compound 321] | 8.10 | 7.82 | 8.30 |  |  |  | 
CC(C)OC(=O)Nc1cnc2nc(-c3cc(NC(=O)N4CCC(NC(=O)OC(C)(C)C)C4)ccc3Cl)cn2c1 (stereo not shown) [Compound 268] | < 4.60 | 4.84 | 4.97 |  |  |  | 
CC(C)OC(=O)Nc1cnc2nc(-c3cccc(NC(=O)c4ccc(F)o4)c3)cn2c1 [Compound 3, propan-2-yl N-{2-[3-(5-fluorofuran-2-amido)phenyl]imidazo[1,2-a]pyrimidin-6-yl}carbamate] | 6.62 | 6.37 | 6.29 |  |  |  | 
CC(C)OC(=O)Nc1cnc2nc(-c3cc(NC(=O)c4ccc(F)o4)ccc3Cl)cn2c1 [Compound 1, Propan-2-yl N-{2-[2-chloro-5-(5-fluorofuran-2-amido)phenyl]imidazo[1,2-a]pyrimidin-6-yl}carbamate] | 7.06 | 6.61 | 7.52 |  |  |  | 7.52
CC(C)OC(=O)Nc1cnc2nc(-c3cc(NC(=O)N4CCC(N5CCOCC5)C4)ccc3Cl)cn2c1 (stereo not shown) [Compound 273] | < 4.60 | < 4.30 | < 4.70 |  |  |  | 
Cc1nc(C)c(C(=O)Nc2ccc(F)c(-c3cn4cc(-c5nc(C)c(C)s5)cnc4n3)c2)o1 [Compound 457, N-(3-(6-(4,5-dimethylthiazol-2-yl)imidazo[1,2-a]pyrimidin-2-yl)-4-fluorophenyl)-2,4-dimethyloxazole-5-carboxamide] |  |  |  | 6.79 | 4.88 | 6.49 | 
O=C(Nc1ccc(F)c(-c2cn3cc(Nc4ncccc4C(F)(F)F)cnc3n2)c1)N1CCCC1 [Compound 191] | 7.55 | 6.84 | 7.48 |  |  |  | 
CC(C)(C)OC(=O)N1CC=C(c2cnc3nc(-c4cc(NC(=O)N5CCCC5)ccc4Cl)cn3c2)CC1 [Compound 343, tert-butyl 4-(2-(2-chloro-5-(pyrrolidine-1-carboxamido)phenyl)imidazo[1,2-a]pyrimidin-6-yl)-5,6-dihydropyridine-1(2H)-carboxylate] | 6.97 | 6.51 | 7.13 |  |  |  | 
CC(C)OC(=O)Nc1cnc2nc(-c3cc(NC(=O)N4CCC4)ccc3Cl)cn2c1 [Compound 278] | 6.75 | 5.97 | 5.96 |  |  |  | 
CN(CC(F)(F)F)C(=O)Nc1ccc(F)c(-c2cn3cc(C4=CCOCC4)cnc3n2)c1 [Compound 326] | 6.80 | 6.30 | 6.91 |  |  |  | 
CC(C)OC(=O)Nc1ccc(F)c(-c2cn3cc(NC(=O)OC(C)C)cnc3n2)c1 [Compound 302] | 6.52 | 6.23 | 6.87 |  |  |  | 
CC(C)NC(=O)Nc1ccc(Cl)c(-c2cn3cc(NC(=O)OC(C)C)cnc3n2)c1 [Compound 277] | 5.16 | 4.97 | 5.41 |  |  |  | 
CC1(c2nc(Nc3ccc(F)c(-c4cn5cc(C6CC6)cnc5n4)c3)no2)COC1 [Compound 595, N-(3-(6-cyclopropylimidazo[1,2-a]pyrimidin-2-yl)-4-fluorophenyl)-5-(3-methyloxetan-3-yl)-1,2,4-oxadiazol-3-amine] |  |  |  | < 4.60 | < 4.30 | 5.04 | 
O=C(Nc1ccc(F)c(-c2cn3cc(-c4ccccc4)cnc3n2)c1)N1CCCC1 [Compound 358] | 7.52 | 6.83 | 7.92 |  |  |  | 
CC(C)OC(=O)Nc1cnc2nc(-c3cc(NC(=O)c4cnc(C5CC5)o4)ccc3F)cn2c1 [Compound 108] | 6.11 | 5.62 | 5.92 |  |  |  | 
